Data taken from article PMC6943434, “Novel Homo-Bivalent and Polyvalent Compounds Based on Ligustrazine and Heterocyclic Ring as Anticancer Agents” (Molecules, 2019).

Columns and labels:
[1] = tested on: FaDu (head and neck squamous carcinoma cell line); assay: MTT cell viability assay, FaDu; format: cell-based, human; settings: for IC50: Homo sapiens, FaDu, 48 h, MTT, read-out: Antiproliferative Activity IC50 ± SEM, FaDu; for SI: selectivity index: SI = IC50 (MCF 10A)/IC50 (FaDu)
Experimental: (§1) The tested cells were obtained from Shanghai Institute of Biochemistry and Cell Biology of the Chinese Academy of Sciences (Shanghai, China). HeLa and Hep G2 cell lines were cultured in Dulbecco’s modified Eagle’s medium (DMEM; gibco, Life Technologies, Carlsbad, CA, USA) supplemented with 10% fetal bovine serum (FBS; Biological Industries), 100 U/mL penicillin-streptomycin (PS; gibco, Life Technologies, Carlsbad, CA, USA). MCF-7 and A549 cell lines were maintained in RPMI-1640 media (gibco, Life Technologies, Carlsbad, CA, USA) supplemented with 10% FBS and 100 U/mL PS. FaDu cell lines were cultured in minimum essential medium (MEM; Gibco, Life Technologies, Carlsbad, CA, USA) supplemented with 10% FBS and 100 U/mL PS. MCF 10A cell lines were maintained in Mammary MEGM kit (Lonza/Clonetics) supplemented with 100 ng/mL cholera toxin (Sigma, Shanghai, China). Cell lines were grown at 37 °C in a humidified atmosphere of 5% CO2.
(§2) The growth-inhibitory effects against HeLa, Hep G2, MCF-7, FaDu, and A549 cancer cells and normal cell lines MCF 10A were determined by MTT assay. […] Cells were seeded in 96 well plates at a density of 1 × 10^4 cells per well and incubated for 24 h at 37 °C in a humidified atmosphere of 5% CO2. The cells were then incubated with various concentrations of drugs for 48 h in a 5% CO2 incubator at 37 °C. After treatment with 1 mg/mL 3-(4,5-dimethylthiazol-2-yl)-2,5-diphenyltetrazolium bromide (MTT) solution for 4 h, the formazan crystals were dissolved in 100 µL DMSO in each well. Plates were read on a microplate reader (Thermo Varioskan Flash 3001) at 490 nm. The experiment was performed in triplicate. The inhibitory concentration at 50% (IC50) was calculated based on concentration-inhibition relationships via regression using SPSS software (Version 17.0).

[2] = tested on: HeLa (cervical cancer cell line); assay: MTT cell viability assay, HeLa; format: cell-based; settings: Homo sapiens, 48 h, read-out: Antiproliferative Activity IC50 ± SEM, HeLa
Experimental: as §1, §2

[3] = tested on: Hep G2 (hepatocarcinoma cell line); assay: MTT cell viability assay, Hep G2; format: cell-based; settings: Homo sapiens, HepG2, 48 h, read-out: Antiproliferative Activity IC50 ± SEM, Hep G2
Experimental: as §1, §2

[4] = tested on: MCF 10A (normal mammary epithelial cell); assay: MTT cell viability assay, MCF 10A; format: cell-based; settings: Homo sapiens, 48 h, normal cells, read-out: Antiproliferative Activity IC50 ± SEM, MCF 10A
[5] = tested on: A549 (epithelial cancer cell line); assay: MTT cell viability assay, A549; format: cell-based; settings: Homo sapiens, 48 h, read-out: Antiproliferative Activity IC50 ± SEM, A549
Experimental: as §1, §2

[6] = tested on: MCF-7 (breast cancer cell line); assay: MTT cell viability assay, MCF-7; format: cell-based; settings: Homo sapiens, MCF7, 48 h, read-out: Antiproliferative Activity IC50 ± SEM, MCF-7
Experimental: as §1, §2

Compound	IC50 [1] [µM]	IC50 [2] [µM]	IC50 [3] [µM]	IC50 [4] [µM]	IC50 [5] [µM]	IC50 [6] [µM]	SI: selectivity index [1]
Cc1nc(C)c(CN(CCN(Cc2nc(C)c(C)nc2C)Cc2nc(C)c(C)nc2C)Cc2nc(C)c(C)nc2C)nc1C [Compound 6a, N^1,N^1,N^2,N^2-Tetrakis((3,5,6-Trimethylpyrazin-2-yl)Methyl)Ethane-1,2-Diamine]	> 100	> 100	> 100	90.3 ± 3.41	> 100	> 100	
Cc1nc(C)c(CN(CCCN(Cc2nc(C)c(C)nc2C)Cc2nc(C)c(C)nc2C)Cc2nc(C)c(C)nc2C)nc1C [Compound 6b, N^1,N^1,N^3,N^3-Tetrakis((3,5,6-Trimethylpyrazin-2-yl)Methyl)Propane-1,3-Diamine]	> 100	> 100	> 100	> 100	> 100	> 100	
Cc1nc(C)c(CN(CCCCN(Cc2nc(C)c(C)nc2C)Cc2nc(C)c(C)nc2C)Cc2nc(C)c(C)nc2C)nc1C [Compound 6c, N^1,N^1,N^4,N^4-Tetrakis((3,5,6-Trimethylpyrazin-2-yl)Methyl)Butane-1,4-Diamine]	> 100	> 100	> 100	> 100	> 100	> 100	
Cc1nc(C)c(CN(CCCCCCN(Cc2nc(C)c(C)nc2C)Cc2nc(C)c(C)nc2C)Cc2nc(C)c(C)nc2C)nc1C [Compound 6d, N^1,N^1,N^6,N^6-Tetrakis((3,5,6-Trimethylpyrazin-2-yl)Methyl)Hexane-1,6-Diamine]	> 100	> 100	> 100	> 100	> 100	> 100	
Cc1nc(C)c(CN(CCCCCCCCN(Cc2nc(C)c(C)nc2C)Cc2nc(C)c(C)nc2C)Cc2nc(C)c(C)nc2C)nc1C [Compound 6e, N^1,N^1,N^8,N^8-Tetrakis((3,5,6-Trimethylpyrazin-2-yl)Methyl)Octane-1,8-Diamine]	49.5 ± 1.61	62.7 ± 4.19	50.8 ± 1.35	85.4 ± 2.28	> 100	66.36 ± 0.05	1.73
Cc1nc(C)c(CN2CCN(Cc3nc(C)c(C)nc3C)CC2)nc1C [Compound 6h, 1,4-Bis((3,5,6-Trimethylpyrazin-2-yl)Methyl)Piperazine]	> 100	> 100	> 100	> 100	> 100	> 100	
Cc1nc(C)c(CN(CCO)Cc2nc(C)c(C)nc2C)nc1C [Compound 6i, 2-(Bis((3,5,6-Trimethylpyrazin-2-yl)Methyl)Amino)Ethanol]	> 100	> 100	> 100	> 100	> 100	> 100	
Cc1nc(C)c(C(=O)NCCCNC(=O)c2nc(C)c(C)nc2C)nc1C [Compound 8a, N,N′-(Propane-1,3-Diyl)Bis(3,5,6-Trimethylpyrazine-2-Carboxamide)]	> 100	> 100	> 100	> 100	> 100	> 100	
Cc1nc(C)c(C(=O)NCCCCNC(=O)c2nc(C)c(C)nc2C)nc1C [Compound 8b, N,N′-(Butane-1,4-Diyl)Bis(3,5,6-Trimethylpyrazine-2-Carboxamide)]	> 100	> 100	> 100	> 100	> 100	> 100	
Cc1nc(C)c(C(=O)NCCCCCCNC(=O)c2nc(C)c(C)nc2C)nc1C [Compound 8c, N,N′-(Hexane-1,6-Diyl)Bis(3,5,6-Trimethylpyrazine-2-Carboxamide)]	80.4 ± 1.36	> 100	> 100	46.6 ± 0.65	> 100	> 100	
Cc1nc(C)c(C(=O)NCCCCCCCCNC(=O)c2nc(C)c(C)nc2C)nc1C [Compound 8d, N,N′-(Octane-1,8-Diyl)Bis(3,5,6-Trimethylpyrazine-2-Carboxamide)]	0.11 ± 0.03	3.31 ± 0.14	> 20	2.69 ± 0.46	6.35 ± 0.05	0.48 ± 0.003	24.45
Cc1nc(C)c(C(=O)NCCCCCCCCCCCCNC(=O)c2nc(C)c(C)nc2C)nc1C [Compound 8f, N,N′-(Dodecane-1,12-Diyl)Bis(3,5,6-Trimethylpyrazine-2-Carboxamide)]	0.174 ± 0.01	4.96 ± 1.62	> 20	0.051 ± 0.021	2.46 ± 0.05	0.158 ± 0.009	0.29
O=C(/C=C/c1ccccc1)NCCCCCCCCNC(=O)/C=C/c1ccccc1 [Compound 9d, (2E,2′E)-N,N′-(Octane-1,8-Diyl)Bis(3-Phenylacrylamide)]	1.05 ± 0.091	> 20	> 20	> 20	> 20	> 20	>18.98
O=C(/C=C/c1ccccc1)NCCCCCCCCCCNC(=O)/C=C/c1ccccc1 [Compound 9e, (2E,2′E)-N,N′-(Decane-1,10-Diyl)Bis(3-Phenylacrylamide)]		> 100	> 100	> 100	11.3 ± 0.81	> 100	>1851.85
O=C(/C=C/c1ccccc1)NCCCCCCCCCCCCNC(=O)/C=C/c1ccccc1 [Compound 9f, (2E,2′E)-N,N′-(Dodecane-1,12-Diyl)Bis(3-Phenylacrylamide)]	0.027 ± 0.002	> 20	> 20	> 20	> 20	> 20	>740.74
O=C(/C=C/c1ccccc1)OCCCCCCCCOC(=O)/C=C/c1ccccc1 [Compound 9g, Octane-1,8-Diyl (2E,2′E)-Bis(3-Phenylacrylate)]	> 20	> 20	> 20	> 20	> 20	> 20	
O=C(/C=C/c1ccccc1)OCCCCCCCCCCOC(=O)/C=C/c1ccccc1 [Compound 9h, Decane-1,10-Diyl (2E,2′E)-Bis(3-Phenylacrylate)]	> 20	> 20	> 20	> 20	> 20	> 20	
O=C(/C=C/c1ccccc1)OCCCCCCCCCCCCOC(=O)/C=C/c1ccccc1 [Compound 9i, Dodecane-1,12-Diyl (2E,2′E)-Bis(3-Phenylacrylate)]	> 20	> 20	> 20	> 20	> 20	> 20	
O=C(/C=C/c1ccccc1)NCCOCCOCCNC(=O)/C=C/c1ccccc1 [Compound 9j, (2E,2′E)-N,N′-((Ethane-1,2-Diylbis(Oxy))Bis(Ethane-2,1-Diyl))Bis(3-Phenylacrylamide)]	> 20	> 20	> 20	> 20	> 20	> 20	
O=C(/C=C/c1ccccc1)NCCOCCOCCOCCNC(=O)/C=C/c1ccccc1 [Compound 9k, (2E,2′E)-N,N′-(((Oxybis(Ethane-2,1-Diyl))Bis(Oxy))Bis(Ethane-2,1-Diyl))Bis(3-Phenylacrylamide)]	4.45 ± 0.208	> 20	> 20	> 20	> 20	> 20	>4.50
O=C(/C=C/c1ccccc1)OCCOCCOCCOC(=O)/C=C/c1ccccc1 [Compound 9l, (Ethane-1,2-Diylbis(Oxy))Bis(Ethane-2,1-Diyl) (2E,2′E)-Bis(3-Phenylacrylate)]	> 20	> 20	> 20	> 20	> 20	> 20	
O=C(/C=C/c1ccccc1)OCCOCCOCCOCCOC(=O)/C=C/c1ccccc1 [Compound 9m, ((Oxybis(Ethane-2,1-Diyl))Bis(Oxy))Bis(Ethane-2,1-Diyl) (2E,2′E)-bis(3-Phenylacrylate)]	> 20	> 20	> 20	> 20	> 20	> 20	
